Measured values from PubChem BioAssay AID330 (DTP/NCI, 2004).
Several values for one entry are separate records, joined by “and”; a condition that tells them apart may be missing. Equal values may be shown once. Toxic doses and inconclusive results are not listed.

System: P388 leukemia ip, CD2F1 mice, survival T/C
Test: NCI In Vivo Anticancer Drug Screen. Data for tumor model P388 Leukemia (intraperitoneal) in CD2F1 (CDF1) mice
Settings: endpoint: median survival time, higher = longer survival
Outline: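 Mice carrying the transplanted tumor received test compound or vehicle. Survival was recorded in each group, and the value is the treated-group measurement divided by that of the vehicle-treated control group.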

[1] = dose: 100.0 mg/kg/injection, schedule: Q04DX002 (ip), vehicle: Klucel (hydroxypropylcellulose) (HPC)
[2] = dose: 200.0 mg/kg/injection, schedule: Q04DX002 (ip), vehicle: Klucel (hydroxypropylcellulose) (HPC)
[3] = dose: 400.0 mg/kg/injection, schedule: Q04DX002 (ip), vehicle: Klucel (hydroxypropylcellulose) (HPC)
[4] = dose: 25.0 mg/kg/injection, schedule: Q01DX009 (ip), vehicle: saline
[5] = dose: 50.0 mg/kg/injection, schedule: Q01DX009 (ip), vehicle: saline
[6] = dose: 100.0 mg/kg/injection, schedule: Q01DX009 (ip), vehicle: saline with Tween-80
[7] = dose: 200.0 mg/kg/injection, schedule: Q01DX009 (ip), vehicle: saline with Tween-80
[8] = dose: 50.0 mg/kg/injection, schedule: Q01DX005 (ip), vehicle: saline with Tween-80
[9] = dose: 100.0 mg/kg/injection, schedule: Q01DX009 (ip), vehicle: Klucel (hydroxypropylcellulose) (HPC)
[10] = dose: 200.0 mg/kg/injection, schedule: Q01DX009 (ip), vehicle: Klucel (hydroxypropylcellulose) (HPC)
[11] = dose: 400.0 mg/kg/injection, schedule: Q01DX009 (ip), vehicle: Klucel (hydroxypropylcellulose) (HPC)

For `O=C1C(Cl)=C(Cl)C(=O)N1c1ccc(Br)cc1Br`, the T/C [1] was 105 % of control, the T/C [2] was 105 % of control and the T/C [3] was 100 % of control.

For `CCc1cc(-n2c3c(CC)c(=O)c(CC)cc-3nc3ccccc32)cc(CC)c1O`, the T/C [4] was 98 % of control, the T/C [5] was 109 % of control and the T/C (dose: 100.0 mg/kg/injection, schedule: Q01DX009 (ip), vehicle: saline) was 105 % of control.

In the case of `CCCCCCCCCCCCCCCC(=O)O`, the T/C (dose: 50.0 mg/kg/injection, schedule: Q01DX009 (ip), vehicle: saline with Tween-80) is reported as 107 % of control, the T/C [6] is reported as 102 % of control and the T/C [7] is reported as 102 % of control.

In the case of `CCOC(=O)C(=Cc1ccc(OC)c(OC)c1)C(=O)OCC`, the T/C [8] is reported as 110 % of control, the T/C (dose: 100.0 mg/kg/injection, schedule: Q01DX005 (ip), vehicle: saline with Tween-80) is reported as 102 % of control and the T/C (dose: 200.0 mg/kg/injection, schedule: Q01DX005 (ip), vehicle: saline with Tween-80) is reported as 103 % of control.

With `O=S(=O)(Nc1ccc(Cl)cc1C(F)(F)F)c1ccc(F)cc1` the T/C (dose: 60.0 mg/kg/injection, schedule: Q01DX005 (ip), vehicle: saline with Tween-80) was 100 % of control and the T/C (dose: 120.0 mg/kg/injection, schedule: Q01DX005 (ip), vehicle: saline with Tween-80) was 110 % of control.

`CC=C/C=C/[C@@H]1O[C@](O)([C@H](CC)C(=O)NC/C=C/C=C(\C)[C@@H](OC)[C@@H](C)[C@@H]2O[C@H](/C=C/C=C/C=C(\C)C(=O)c3c(O)cc[nH]c3=O)[C@H](O)[C@@H]2O)[C@H](O)[C@H](O)C1(C)C` was tested, and the T/C (dose: 4.5 mg/kg/injection, schedule: Q01DX009 (ip), vehicle: Klucel (hydroxypropylcellulose) (HPC)) was 108 % of control, the T/C (dose: 9.0 mg/kg/injection, schedule: Q01DX009 (ip), vehicle: Klucel (hydroxypropylcellulose) (HPC)) was 108 % of control and the T/C (dose: 18.0 mg/kg/injection, schedule: Q01DX009 (ip), vehicle: Klucel (hydroxypropylcellulose) (HPC)) was 104 % of control. For the same compound, the T/C (dose: 36.0 mg/kg/injection, schedule: Q01DX009 (ip), vehicle: Klucel (hydroxypropylcellulose) (HPC)) was 103 % of control, the T/C (dose: 50.0 mg/kg/injection, schedule: Q01DX009 (ip), vehicle: Klucel (hydroxypropylcellulose) (HPC)) was 98 % of control and the T/C [9] was 99 % of control. For the same compound, the T/C [10] was 99 % of control and the T/C [11] was 102 % of control.

In the case of `Cc1ccc(NCCCN2CCN(CCCNc3ccc(C)c4sc5ccccc5c(=O)c34)CC2)c2c(=O)c3ccccc3sc12`, the T/C (dose: 0.5 mg/kg/injection, schedule: Q01DX005 (ip), vehicle: saline with Tween-80) is reported as 97 % of control, the T/C (dose: 1.0 mg/kg/injection, schedule: Q01DX005 (ip), vehicle: saline with Tween-80) is reported as 88 % of control and the T/C (dose: 2.0 mg/kg/injection, schedule: Q01DX005 (ip), vehicle: saline with Tween-80) is reported as 97 % of control. For the same compound, the T/C (dose: 4.0 mg/kg/injection, schedule: Q01DX005 (ip), vehicle: saline with Tween-80) was 90 % of control.

For `N#Cc1ccccc1N=NNc1ccc(-c2nc(N)nc(N)n2)cc1`, the T/C (dose: 50.0 mg/kg/injection, schedule: Q04DX003 (ip), vehicle: saline) was 100 % of control, the T/C (dose: 100.0 mg/kg/injection, schedule: Q04DX003 (ip), vehicle: saline) was 95 % of control and the T/C (dose: 200.0 mg/kg/injection, schedule: Q04DX003 (ip), vehicle: saline) was 100 % of control.

In the case of `O=C(/C=C\c1ccccc1)c1ccccc1`, the T/C (dose: 100.0 mg/kg/injection, schedule: Q04DX002 (ip), vehicle: saline) is reported as 112 % of control, the T/C (dose: 200.0 mg/kg/injection, schedule: Q04DX002 (ip), vehicle: saline) is reported as 110 % of control and the T/C (dose: 400.0 mg/kg/injection, schedule: Q04DX002 (ip), vehicle: saline) is reported as 102 % of control.

For `C=CC12CC(=O)N3CCc4ccccc4C3(C1)C2`, the T/C [1] was 110 % of control, the T/C [2] was 100 % of control and the T/C [3] was 97 % of control.

In the case of `CC(C)CCCCCCCCCCCCC(=O)NCC(=O)NC1C(CO)OC(Nc2ncnc3nc[nH]c23)C(O)C1O` (stereo not given), the T/C (dose: 0.13 mg/kg/injection, schedule: Q01DX009 (ip), vehicle: other) is reported as 114 % of control, the T/C (dose: 0.5 mg/kg/injection, schedule: Q01DX009 (ip), vehicle: other) is reported as 161 % of control and the T/C (dose: 1.0 mg/kg/injection, schedule: Q01DX009 (ip), vehicle: other) is reported as 105 % of control. For the same compound, the T/C (dose: 2.0 mg/kg/injection, schedule: Q01DX009 (ip), vehicle: other) was 89 % of control.

For `COC(=O)n1oc2ccccc2c1=O`, the T/C [1] was 99 % of control, the T/C [2] was 101 % of control and the T/C [3] was 101 % of control.

In the case of `COc1cccc2c1C(=N)c1c(O)c3c(c(O)c1C2=O)CC(O)(C(=O)CO)CC3OC1CC(N2CCOCC2C#N)C(O)C(C)O1` (stereo not given), the T/C (dose: 0.25 mg/kg/injection, schedule: Q04DX003 (ip), vehicle: saline) is reported as 117 % of control, the T/C (dose: 0.5 mg/kg/injection, schedule: Q04DX003 (ip), vehicle: saline) is reported as 157 % of control and the T/C (dose: 1.0 mg/kg/injection, schedule: Q04DX003 (ip), vehicle: saline) is reported as 111 % of control and 97 % of control.

For `CC12CC3CN(C(=O)c4ccccc4)CCC3CC1=Nc1ccccc12` (stereo not given), the T/C (dose: 25.0 mg/kg/injection, schedule: Q04DX002 (ip), vehicle: saline with Tween-80) was 100 % of control, the T/C (dose: 50.0 mg/kg/injection, schedule: Q04DX002 (ip), vehicle: saline with Tween-80) was 103 % of control and the T/C (dose: 100.0 mg/kg/injection, schedule: Q04DX002 (ip), vehicle: saline with Tween-80) was 94 % of control. The T/C (dose: 200.0 mg/kg/injection, schedule: Q04DX002 (ip), vehicle: saline with Tween-80) was 86 % of control.

In the case of `CN(C)C1CC/C=C/CC/C=C/CC[C@H]1O` (mixture of isomers), the T/C (dose: 12.5 mg/kg/injection, schedule: Q01DX005 (ip), vehicle: saline with Tween-80) is reported as 100 % of control, the T/C (dose: 25.0 mg/kg/injection, schedule: Q01DX005 (ip), vehicle: saline with Tween-80) is reported as 98 % of control and the T/C [8] is reported as 99 % of control and 100 % of control.

`O=C(C[n+]1ccccc1)c1ccccc1` was tested, and the T/C (dose: 12.5 mg/kg/injection, schedule: Q01DX009 (ip), vehicle: saline) was 105 % of control, the T/C [4] was 104 % of control and the T/C [5] was 96 % of control.

In the case of `Nc1ccc2c(c1)CN1C(=O)c3ccccc3C1=N2`, the T/C (dose: 6.25 mg/kg/injection, schedule: Q01DX009 (ip), vehicle: saline with Tween-80) is reported as 100 % of control, the T/C (dose: 12.5 mg/kg/injection, schedule: Q01DX009 (ip), vehicle: saline with Tween-80) is reported as 93 % of control and the T/C (dose: 22.2 mg/kg/injection, schedule: Q01DX009 (ip), vehicle: saline with Tween-80) is reported as 111 % of control. The T/C (dose: 25.0 mg/kg/injection, schedule: Q01DX009 (ip), vehicle: saline with Tween-80) was 96 % of control, the T/C [4] was 91 % of control and the T/C (dose: 30.0 mg/kg/injection, schedule: Q01DX009 (ip), vehicle: saline with Tween-80) was 104 % of control. The T/C (dose: 33.4 mg/kg/injection, schedule: Q01DX009 (oral), vehicle: saline with Tween-80) was 97 % of control, the T/C (dose: 40.0 mg/kg/injection, schedule: Q01DX009 (ip), vehicle: saline with Tween-80) was 90 % of control and the T/C [5] was 161 % of control. The T/C (dose: 50.0 mg/kg/injection, schedule: Q01DX009 (oral), vehicle: saline with Tween-80) was 108 % of control, the T/C (dose: 60.0 mg/kg/injection, schedule: Q01DX009 (ip), vehicle: saline with Tween-80) was 119 % of control and the T/C (dose: 75.0 mg/kg/injection, schedule: Q01DX009 (oral), vehicle: saline with Tween-80) was 108 % of control. The T/C [6] was 100 % of control and 93 % of control, the T/C (dose: 112.4 mg/kg/injection, schedule: Q01DX009 (ip), vehicle: saline with Tween-80) was 121 % of control and the T/C (dose: 112.4 mg/kg/injection, schedule: Q01DX009 (oral), vehicle: saline with Tween-80) was 117 % of control. For the same compound, the T/C (dose: 168.5 mg/kg/injection, schedule: Q01DX009 (oral), vehicle: saline with Tween-80) was 108 % of control.

In the case of `O=[N+]([O-])c1cc(Cl)ccc1-c1ccccc1`, the T/C [9] is reported as 87 % of control, the T/C [10] is reported as 93 % of control and the T/C [11] is reported as 101 % of control.

For `CCN(/C=N/N(C)S(C)(=O)=O)c1ccccc1`, the T/C (dose: 50.0 mg/kg/injection, schedule: Q01DX005 (ip), vehicle: Klucel (hydroxypropylcellulose) (HPC)) was 104 % of control, the T/C (dose: 100.0 mg/kg/injection, schedule: Q01DX005 (ip), vehicle: Klucel (hydroxypropylcellulose) (HPC)) was 116 % of control and the T/C (dose: 200.0 mg/kg/injection, schedule: Q01DX005 (ip), vehicle: Klucel (hydroxypropylcellulose) (HPC)) was 118 % of control.

`C/C(=C\c1c[nH]c2ccccc12)[N+](=O)[O-]` was tested, and the T/C [6] was 109 % of control, the T/C [7] was 104 % of control and the T/C (dose: 400.0 mg/kg/injection, schedule: Q01DX009 (ip), vehicle: saline with Tween-80) was 124 % of control.
